From patent US12226390B2, “Cannabinoids compositions with polyunsaturated fatty acid monoglycerides, methods and uses thereof” (SCF PHARMA INC., priority 2019, dated 2025)
Converted amounts (≈) assume the structure as drawn.

Columns and labels:
[1] = Comparative human absorption cross-over study of CBD in compound of formula (IV) versus MCT oil; type: in vivo
Description: 54 mg of cannabidiol (CBD) was dissolved in 2.5 g of compound of formula (IV) to give a clear solution. 1.16 g of the mixture (25 mg CBD) was encapsulated in two (2) hard gel capsules (size 00) for absorption study. A pilot absorption study was conducted in one volunteer. The two (2) hard gel capsules were swallowed with a glass of water by the volunteer fasted for 10 h. 200 ul of blood was collected by a lancet in a heparinised microtube at T=0, 1, 2, 3, 4, 5, 6, 7 and 8 h. The plasma was analyzed by HPLC/MS/MS to quantify the CBD. A comparative study was conducted with the same amount of CBD but with MCT oil (medium-chain triglycerides oil) instead of compound of formula (IV).

[2] = CBD solubility in carrier oils; type: physicochemical; details: for solubility: oil or lipid
[3] = 400 mg CBD in corn oil, orally administered; cited from earlier work
[4] = Human absorption study of composition 1 (cannabinoid extract containing CBDA in compound of formula IV and EPA fish oil); type: in vivo
Description: Cannabis dried flowers (7 g) was extracted with ethanol (100 ml) for 72 h at room temperature. The flowers was filtered and the ethanol was removed under vacuum without heating to give the cannabinoid crude extract (1.9 g) containing 85% CBDA and 4% THCA. The crude extract (315 mg) was dissolved in a mixture of compound of formula (IV) and EPA concentrated ethyl ester fish oil (3.5 g) to give composition 1.
2.47 g of composition 1 was encapsulated in four (4) hard gel capsules (size 00) for absorption study. A pilot absorption study was conducted in one volunteer. The four (4) hard gel capsules were swallowed with a glass of water by the volunteer fasted for 10 h. 200 ul of blood was collected by a lancet in a heparinised microtube at T=0, 0.5, 1, 1.5, 2, 2.5, 3, 3.5, 4, 4.5, and 6.5 h. The plasma was analyzed by HPLC/MS/MS to quantify the CBDA.

[5] = target: T1, COX-2 (Homo sapiens, UniProt P35354); details: native acid form; cited from earlier work
T1 sequence (P35354 18-604): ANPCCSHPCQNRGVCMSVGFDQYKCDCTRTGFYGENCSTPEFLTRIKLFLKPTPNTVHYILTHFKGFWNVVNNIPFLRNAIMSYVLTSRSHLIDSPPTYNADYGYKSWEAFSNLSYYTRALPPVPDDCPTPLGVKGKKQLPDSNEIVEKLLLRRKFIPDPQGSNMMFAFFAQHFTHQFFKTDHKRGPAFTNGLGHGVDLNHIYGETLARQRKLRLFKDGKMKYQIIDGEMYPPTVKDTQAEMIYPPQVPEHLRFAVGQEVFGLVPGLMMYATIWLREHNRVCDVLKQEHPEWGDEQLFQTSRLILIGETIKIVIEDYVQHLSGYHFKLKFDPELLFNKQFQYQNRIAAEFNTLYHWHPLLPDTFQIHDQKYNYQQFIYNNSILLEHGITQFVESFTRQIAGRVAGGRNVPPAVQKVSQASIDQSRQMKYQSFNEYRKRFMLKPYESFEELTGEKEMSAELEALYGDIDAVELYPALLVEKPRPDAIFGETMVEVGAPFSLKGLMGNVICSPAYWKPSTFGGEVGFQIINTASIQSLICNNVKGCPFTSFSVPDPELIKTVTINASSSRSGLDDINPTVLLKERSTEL

[6] = stated by Health Canada; cited from earlier work
[7] = native acid form; cited from earlier work

For `C=C(C)[C@@H]1CCC(C)=C[C@H]1c1c(O)cc(CCCCC)cc1O` [CBD, Cannabidiol], the “absorption and bioavailability of CBD, compound of formula (IV) over MCT oil” value ([1]; 25 mg CBD oral in hard gel capsules, one volunteer fasted 10 h, plasma 0-8 h, FIG. 1) was “superiority”, the bioavailability ([1]; human, plasma, formulated in compound of formula IV, low dose of 25 mg, oral, read-out: CBD more bioavailable than in MCT oil) was 200% and the increase of solubility ([2]; formulation containing compound of formula IV and EPA fish oil versus corn oil) was 33%. The solubility ([2]; in a formulation containing compound of formula IV and EPA fish oil) was 400 mg/mL (≈ 1270 mM), the solubility ([2]; in corn oil) was about 300 mg/mL (≈ 954 mM) and the Cmax in plasma [3] was 181 ng/mL.
In the case of `C=C(C)[C@@H]1CCC(C)=C[C@H]1c1c(O)cc(CCCCC)c(C(=O)O)c1O` [CBDA, Cannabidiolic Acid], the “increase of the Cmax” value ([4]; 170 mg CBDA in compound of formula IV versus 400 mg CBD in corn oil (half of the dose)) is given as 500%, the Cmax ([4]; human, plasma, cannabinoid extract containing 170 mg of CBDA in compound of formula IV, oral, one fasted volunteer) is given as 1000 ng/mL and the COX-2 inhibition [5] is given as “COX-2 inhibitor”.
For `CCCCCc1cc(O)c2c(c1)OC(C)(C)[C@@H]1CCC(C)=C[C@@H]21` [THC, Tetrahydrocannabinol], the oral bioavailability [6] is listed as 10%.
For `CCCCCc1cc2c(c(O)c1C(=O)O)[C@@H]1C=C(C)CC[C@H]1C(C)(C)O2` [THCA, Tetrahydrocannabinolic acid], the psychotropic effect [7] is given as “no psychotropic effect”.
